≈ marks a conversion by molar mass, not a printed value.
What follows are molecules tested on S. pneumoniae ATCC 49619 (assay: Minimal inhibitory concentration (MIC) by microdilution method (CLSI M7-A7)). Settings: Streptococcus pneumoniae, ATCC49619, cation-adjusted Mueller-Hinton Broth supplemented with 3% (v/v) lysed horse blood.
Assay type: cell-based, Streptococcus pneumoniae
Experimental: Minimal inhibitory concentrations (MICs; mg/l) were determined in cation-adjusted Mueller-Hinton Broth (supplemented with 3% (v/v) lysed horse blood for testing Streptococcus pneumoniae) by a microdilution method following the description given in “Methods for Dilution Antimicrobial Susceptibility Tests for Bacteria that Grow Aerobically”, Approved standard, 7th ed., Clinical and Laboratory Standards Institute (CLSI) Document M7-A7, Wayne, Pa., USA, 2006.
Molecule `CCNC(=O)Nc1cc2cccc(Nc3ccccc3)c2cn1` [Example 169, 1-ethyl-3-(8-phenylamino-isoquinolin-3-yl)-urea] has an MIC of 1 µg/mL (≈ 3.26 µM). In the case of `CCNC(=O)Nc1cc2cccc(Nc3ccc(C(=O)O)c(C)c3)c2cn1` [Example 267, 4-[3-(3-ethyl-ureido)-isoquinolin-8-ylamino]-2-methyl-benzoic acid], the MIC was 2 µg/mL (≈ 5.49 µM). `CCNC(=O)Nc1cc2cc(-c3ccc4c(c3)CCO4)cc(C)c2cn1` [Example 83, 1-[6-(2,3-dihydro-benzofuran-5-yl)-8-methyl-isoquinolin-3-yl]-3-ethyl-urea] gave an MIC of 1 µg/mL (≈ 2.88 µM). For `CCCNc1cc(C)c2cnc(NC(=O)NCC)cc2c1` [Example 115, 1-ethyl-3-(8-methyl-6-propylamino-isoquinolin-3-yl)-urea], the MIC was 4 µg/mL (≈ 14 µM). `CCNC(=O)Nc1cc2cccc(COc3cccc(O)c3)c2cn1.Cl` [Example 213, 1-ethyl-3-[8-(3-hydroxy-phenoxymethyl)-isoquinolin-3-yl]-urea hydrochloride] showed an MIC of 4 µg/mL. For `CCNC(=O)Nc1cc2cccc(Nc3ccn4ccnc4c3)c2cn1` [Example 150, 1-ethyl-3-[8-(imidazo[1,2-a]pyridin-7-ylamino)-isoquinolin-3-yl]-urea], the MIC was 4 µg/mL (≈ 11.5 µM). `CCNC(=O)Nc1cc2cccc(CNc3cc(C)on3)c2cn1.Cl` [Example 301, 1-ethyl-3-{8-[(5-methyl-isoxazol-3-ylamino)-methyl]-isoquinolin-3-yl}-urea hydrochloride] was tested, and the MIC was 4 µg/mL. Molecule `CCNC(=O)Nc1cc2c(-c3ccncn3)ccc(Cl)c2cn1` [Example 286, 1-(8-chloro-5-pyrimidin-4-yl-isoquinolin-3-yl)-3-ethyl-urea] has an MIC of 8 µg/mL (≈ 24.4 µM). `CCNC(=O)Nc1cc2c(-c3ccnc(OC)c3)ccc(C)c2cn1` [Example 42, 1-ethyl-3-[5-(2-methoxy-pyridin-4-yl)-8-methyl-isoquinolin-3-yl]-urea] showed an MIC of 2 µg/mL (≈ 5.95 µM). `CCNC(=O)Nc1cc2c(F)c(NCc3ccccc3)cc(Cl)c2cn1` [Example 49, 1-(6-benzylamino-8-chloro-5-fluoro-isoquinolin-3-yl)-3-ethyl-urea] gave an MIC of 2 µg/mL (≈ 5.36 µM). With `CCNC(=O)Nc1cc2cccc(COc3ccncc3)c2cn1.Cl` [Example 262, 1-ethyl-3-[8-(pyridin-4-yloxymethyl)-isoquinolin-3-yl]-urea hydrochloride] the MIC was 8 µg/mL. With `CCNC(=O)Nc1cc2cc(NC(=O)c3cccc(N(C)C)c3)cc(Nc3cccnc3)c2cn1` [Example 241, 3-dimethylamino-N-[3-(3-ethyl-ureido)-8-(pyridin-3-ylamino)-isoquinolin-6-yl]-benzamide] the MIC was at most 0.031 µg/mL. Molecule `CCNC(=O)Nc1cc2cc(-c3ccoc3)cc(C)c2cn1` [Example 14, 1-ethyl-3-(6-furan-3-yl-8-methyl-isoquinolin-3-yl)-urea] has an MIC of 4 µg/mL (≈ 13.5 µM). For `CCNC(=O)Nc1cc2cc(NCc3ccc(OCC(N)=O)cc3)cc(C)c2cn1` [Example 186, 2-(4-{[3-(3-ethyl-ureido)-8-methyl-isoquinolin-6-ylamino]-methyl}-phenoxy)-acetamide], the MIC was 8 µg/mL (≈ 19.6 µM). Work on `CCNC(=O)Nc1cc2cc(NC(=O)c3ccc(OC)cc3)cc(C)c2cn1` [Example 120, N-[3-(3-ethyl-ureido)-8-methyl-isoquinolin-6-yl]-4-methoxy-benzamide] yielded an MIC of 0.125 µg/mL (≈ 0.33 µM). In the case of `CCNC(=O)Nc1cc2cccc(Cn3cc(C)cn3)c2cn1` [Example 300, 1-ethyl-3-[8-(4-methyl-pyrazol-1-ylmethyl)-isoquinolin-3-yl]-urea], the MIC was 4 µg/mL (≈ 12.9 µM). Work on `CCNC(=O)Nc1cc2cccc(Nc3cccc(CC(=O)O)c3)c2cn1` [Example 209, {3-[3-(3-ethyl-ureido)-isoquinolin-8-ylamino]-phenyl}-acetic acid] yielded an MIC of 4 µg/mL (≈ 11 µM). For `CCNC(=O)Nc1cc2c(F)ccc(-c3ccc(C(=O)O)cc3)c2cn1` [Example 74, 4-[3-(3-ethyl-ureido)-5-fluoro-isoquinolin-8-yl]-benzoic acid], the MIC was 2 µg/mL (≈ 5.66 µM). In the case of `CCNC(=O)Nc1cc2c(F)c(-c3cncc(C)c3)cc(Nc3cccnc3)c2cn1` [Example 235, 1-ethyl-3-[5-fluoro-6-(5-methyl-pyridin-3-yl)-8-(pyridin-3-ylamino)-isoquinolin-3-yl]urea], the MIC was 0.25 µg/mL (≈ 0.6 µM). `CCNC(=O)Nc1cc2c(-c3ccnc(C)c3)ccc(C)c2cn1` [Example 40, 1-ethyl-3-[8-methyl-5-(2-methyl-pyridin-4-yl)-isoquinolin-3-yl]-urea] gave an MIC of 2 µg/mL (≈ 6.24 µM). Molecule `CCNC(=O)Nc1cc2cccc(Nc3cccc(CC(=O)N(C)C)c3)c2cn1.Cl` [Example 211, 2-{3-[3-(3-ethyl-ureido)-isoquinolin-8-ylamino]phenyl}-N,N-dimethyl-acetamide hydrochloride] has an MIC of 4 µg/mL. Work on `CCNC(=O)Nc1cc2cccc(Nc3ccc(OC)c(C(=O)N(C)C)c3)c2cn1` [Example 244, 5-[3-(3-ethyl-ureido)-isoquinolin-8-ylamino]-2-methoxy-N,N-dimethyl-benzamide] yielded an MIC of 2 µg/mL (≈ 4.91 µM). `CCNC(=O)Nc1cc2cc(NCc3ccnc(N4CCOCC4)c3)cc(C)c2cn1` [Example 185, 1-ethyl-3-{8-methyl-6-[(2-morpholin-4-yl-pyridin-4-ylmethyl)-amino]-isoquinolin-3-yl}-urea] showed an MIC of 4 µg/mL (≈ 9.51 µM). For `CCNC(=O)Nc1cc2cccc(Cn3cccn3)c2cn1` [Example 295, 1-ethyl-3-(8-pyrazol-1-ylmethyl-isoquinolin-3-yl)-urea], the MIC was 8 µg/mL (≈ 27.1 µM). `CCNC(=O)Nc1cc2cc(-c3ccc4nccn4c3)cc(C)c2cn1` [Example 25, 1-ethyl-3-(6-imidazo[1,2-a]pyridin-6-yl-8-methyl-isoquinolin-3-yl)-urea] was tested, and the MIC was 0.5 µg/mL (≈ 1.45 µM). `CCNC(=O)Nc1cc2cccc(Nc3cccc(C(=O)NCc4ccccc4)c3)c2cn1.Cl` [Example 201, N-benzyl-3-[3-(3-ethyl-ureido)-isoquinolin-8-ylamino]-benzamide hydrochloride] showed an MIC of 2 µg/mL. Work on `CCNC(=O)Nc1cc2c(N3CCN(C)CC3)ccc(Nc3cccnc3)c2cn1` [Example 277, 1-ethyl-3-[5-(4-methyl-piperazin-1-yl)-8-(pyridin-3-ylamino)-isoquinolin-3-yl]-urea] yielded an MIC of 2 µg/mL (≈ 4.93 µM). Work on `CCNC(=O)Nc1cc2cccc(Nc3ccc(OC)c(C(=O)NC)c3)c2cn1` [Example 243, 5-[3-(3-ethyl-ureido)-isoquinolin-8-ylamino]-2-methoxy-N-methyl-benzamide] yielded an MIC of 1 µg/mL (≈ 2.54 µM). `CCNC(=O)Nc1cc2c(Nc3cccnc3)ccc(Nc3cccnc3)c2cn1` [Example 268, 1-[5,8-bis-(pyridin-3-ylamino)-isoquinolin-3-yl]-3-ethyl-urea] gave an MIC of 4 µg/mL (≈ 10 µM). Work on `CCNC(=O)Nc1cc2c(-c3ccc(O)cc3)ccc(Nc3cccnc3)c2cn1` [Example 228, 1-ethyl-3-[5-(4-hydroxy-phenyl)-8-(pyridin-3-ylamino)-isoquinolin-3-yl]-urea] yielded an MIC of 2 µg/mL (≈ 5.01 µM). In the case of `CCNC(=O)Nc1cc2c(F)ccc(C)c2cn1` [Example 60, 1-ethyl-3-(5-fluoro-8-methyl-isoquinolin-3-yl)-urea], the MIC was 4 µg/mL (≈ 16.2 µM). Molecule `CCNC(=O)Nc1cc2cccc(CNc3cc(C)ns3)c2cn1` [Example 192, 1-ethyl-3-{8-[(3-methyl-isothiazol-5-ylamino)-methyl]-isoquinolin-3-yl}-urea] has an MIC of 2 µg/mL (≈ 5.86 µM).

Same assay, conditions: cation-adjusted Mueller-Hinton Broth supplemented with 3% (v/v) lysed horse blood
For “1-(8-chloro-5-pyrimidin-4-yl-isoquinolin-3-yl)-3-ethyl-urea [Example 289]”, the “MIC for S. pneumoniae ATCC 49619” value was 2 µg/mL. In the case of `CCNC(=O)Nc1cc2c(CNC)ccc(Nc3cccc(OC)n3)c2cn1` [Example 271, 1-ethyl-3-{8-[(6-methoxy-pyridin)-2-ylamino]-5-[(methylamino)methyl]-isoquinolin-3-yl}-urea], the “MIC for S. pneumoniae ATCC 49619” value was 4 µg/mL.
